Values of other authors as cited in patent US7498301B2, “Composition containing dipeptide of histidine and alanine for reducing uric acid and method for reducing uric acid using the dipeptide” (Lytone Enterprise, Inc., priority 2003, dated 2009).

Experiments:
[1] = low pH (<3.0)
[2] = system: peptidase and proteases excreted from pancreas or other digestive organs

Stability under low pH [1]: remain intact
Digestion by peptidase and proteases [2]: resist against digestion
SMILES: NCCC(=O)N[C@@H](Cc1cnc[nH]1)C(=O)O [carnosine, β-alanyl-L-histidine]
